From US20210038742A1, “CONJUGATION OF TLR7 AGONIST TO NANO-MATERIALS ENHANCES THE AGONISTIC ACTIVITY” (priority 2019, published 2021) come the findings set out here.

Assay [1] deals with T1, TLR7 (Mus musculus, UniProt P58681).
T1 construct: endogenous in cells; host or cells: mouse bone marrow-derived dendritic cells (BMDCs)
T1 sequence (P58681 27-1050): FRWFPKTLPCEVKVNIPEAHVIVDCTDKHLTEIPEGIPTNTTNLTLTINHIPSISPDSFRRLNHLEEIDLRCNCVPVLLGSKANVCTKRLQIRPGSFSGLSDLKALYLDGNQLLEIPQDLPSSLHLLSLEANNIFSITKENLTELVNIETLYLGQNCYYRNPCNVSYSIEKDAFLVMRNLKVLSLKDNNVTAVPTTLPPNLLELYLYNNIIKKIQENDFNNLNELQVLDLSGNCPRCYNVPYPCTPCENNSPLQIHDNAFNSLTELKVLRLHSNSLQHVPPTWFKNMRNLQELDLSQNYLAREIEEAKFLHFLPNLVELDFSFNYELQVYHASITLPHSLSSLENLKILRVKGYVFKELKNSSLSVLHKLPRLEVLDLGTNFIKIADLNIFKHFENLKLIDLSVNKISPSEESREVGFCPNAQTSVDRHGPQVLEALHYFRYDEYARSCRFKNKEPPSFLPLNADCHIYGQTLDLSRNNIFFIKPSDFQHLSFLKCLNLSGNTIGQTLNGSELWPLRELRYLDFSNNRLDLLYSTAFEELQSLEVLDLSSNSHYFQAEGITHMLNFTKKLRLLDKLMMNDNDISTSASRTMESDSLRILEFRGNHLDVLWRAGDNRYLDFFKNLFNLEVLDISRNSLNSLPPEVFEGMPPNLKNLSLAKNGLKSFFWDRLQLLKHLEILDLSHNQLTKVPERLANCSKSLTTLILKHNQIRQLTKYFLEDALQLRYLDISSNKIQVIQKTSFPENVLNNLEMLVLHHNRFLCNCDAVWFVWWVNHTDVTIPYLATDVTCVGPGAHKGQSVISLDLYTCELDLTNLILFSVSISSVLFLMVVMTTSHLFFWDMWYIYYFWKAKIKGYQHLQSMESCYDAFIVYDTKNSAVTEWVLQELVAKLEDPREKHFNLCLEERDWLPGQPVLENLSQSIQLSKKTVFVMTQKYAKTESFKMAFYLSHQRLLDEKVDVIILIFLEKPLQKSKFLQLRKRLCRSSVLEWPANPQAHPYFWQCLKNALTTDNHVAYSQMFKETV
The assay can be described thus: IL-6 release in mouse BMDCs (ELISA). The assay is classed as cell-based. As to the method:
(§1) FIGS. 4A-4E. […] Mouse BMDCs or human PBMCs were plated and incubated with serially diluted 1V209 nanoshells conjugates at different coating densities (high, medium, or low density conjugates, unconjugated TLR7 ligand 1V209, or silica nanoshells for 18 hours. Control cells were treated with 1 μM resiquimod or 0.5% DMSO as vehicle. IL-6 (A) and IL-12 (B) released in the culture supernatants of mouse BMDCs were measured using ELISA. (C) Cytotoxicity in BMDCs was measured by MTT assay. (D) IL-6 released in the culture supernatants of human PBMCs. (E) IL-6 released in the culture supernatants BMDCs isolated from TLR7 deficient mice.
(§2) The correlation between TLR7 ligands density and cytokines induction level was further investigated. To test this, mouse bone marrow-derived dendritic cells (BMDCs) or human peripheral blood mononuclear cells (PBMCs) were treated with unconjugated 1V209, SiO2 nanoshells, or 1V209-nanoshell conjugates with different coating densities (high, medium, or low coating densities). The levels of IL-6 and IL-12 release in the culture supernatant were measured. […] Different formula of conjugates were also tested their cytotoxicity in BMDCs. […] To determine whether the immune potency of 1V209-nanoshell conjugates was TLR7 specific, conjugates was performed in TLR7 deficient BMDCs. […] Thus, high coating of TLR7 agonists silica shells are denoted as 1v209-NS conjugates in the following description.
For orientation: In an ELISA, binding on a coated surface is turned into a signal by an enzyme label.

Assay [2] deals with T1, TLR7. The assay is described as follows: IL-12 release in mouse BMDCs (ELISA). Type of assay: cell-based. The method, then: as §1
FIG. 23. In vitro cytokine induction of NS-TLR in murine cells. Mouse BMDCs (10^5 cells) were plated and incubated with serially diluted 100 nm NS-TLR at different coating densities for 18 hours. IL-12 released in the culture supernatants of mouse BMDCs incubated with unconjugated 1V209, high, medium, low coating density NS-TLR, and silica shells. IL-12 cytokine was measured via ELISA. All data are representative dose response curves in mean±SD with triplicate technical repeats. Data are representative of three independent experiments showing similar results. Data were analyzed by two-way ANOVA with Tukey's post hoc analysis.
as §2

The subject of another assay is NLRP3 inflammasome. The assay is described as follows: IL-1β release in BMDCs (ELISA). The conditions noted are these: supernatant. The assay is classed as cell-based, mouse. The method, then: FIGS. 5A-5C. TLR7 agonist-silica nanoshells conjugates generate high level of IL-1p in BMDCs. 75-2500 nM of TLR7 agonist-silcia shells conjugates were incubated with BMDCs for 24 hours at 37° C., 5% CO2. IL-1β level in supernatant was determined by ELISA. Mechanism figure reference: He, Y. et. al. (2016).
FIG. 24. In vitro IL-1β release of NS-TLR and mixture in BMDCs. 75-2500 nM of NS-TLR (high coating density) and mixture of silica nanoshells and 1V209 were incubated with wild type BMDCs for 18 hours. IL-1p cytokine was measured via ELISA. Dose response curves are in means SD. Data were analyzed by t test.
IL-1β secretion by dendritic cells is mandatory for T cell priming (Ghiringhelli et al., 2009). A two-pronged pathway has been proposed for NLRP3 inflammasome activation in macrophages and DCs. In this model, the first signal is triggered by microbial or endogenous molecules that generate NLRP3 and pro-IL-1p expression through activation of NF-κB; the second signal is triggered by ATP, pore-forming toxins, viral RNA and particulate matters such as silica nanoparticles. […] Resting DCs/macrophages have insufficient NLRP3 in the cells, and therefore, incubating with NLRP3 activator (silica nanoshells) results in no or minimal IL-1β.

Another assay concerns CT26 tumors. The assay is described as follows: CT26 tumor model, intratumoral monotherapy (tumor growth, CD3 IHC, IFN-γ RT-qPCR). The assay is classed as in vivo, mouse. Particulars: single agent. From the text:
FIGS. 13A-13F. Tumor growth regression in mice treated with NS-TLR7a. BALB/c mice were implanted with CT26 cells and treatment began when tumors reached 100 mm^3. Mice (n=5/group) were randomized and treated with vehicle (PBS), silica NS, unconjugated agonist (TLR7a), or NS-TLR7a every other day. Tumor tissues were collected on day 10 post treatment for analysis. A) Protocol of treatment. B) Average tumor growth curves per treatment. (C and D) Immunohistochemistry (IHC) images of CD3^+ cells infiltrating into the tumor environments for (C) unconjugated TLR7a or (D) TLR7a-NS conjugates locally injected tumor. (E and F) IFN-γ gene expression level (E) and (F) quantified CD3^+ T cells (F) in tumor samples for vehicle, NS, TLR7a, and TLR7a-NS conjugate treated groups (n=4-5/group). Representative IHC images were shown. […]
Animals and Tumor Model: Mouse colon cancer cell line CT26 (Cat. No. CRL-2638) was purchased from American Type Culture Collection (ATCC). […] Tumor volume was determined by caliper with the formula: volume (mm^3)=(width×width×length)/2. […]
To test the anti-tumor effects of TLR7 with or without conjugation onto silica nanoshells in vivo, silica NS, unconjugated TLR7a (TLR7 agonist), and NS-TLR7a were tested in a CT26 mouse tumor model. […] On day 8, tumors were harvested for immunohistochemistry (IHC) analysis and CD3^+ cells were assessed as T cell population in the tumor microenvironment.

Where [3] appears, read: BMDCs, 18 hours, ELISA, means ± SD.

What is called EC50 is the concentration needed to bring the measured effect to its halfway point. High values mean a less potent agent, low ones a more potent agent. As to `COCCOc1nc(N)c2[nH]c(=O)n(Cc3ccc(C(=O)O)cc3)c2n1` [1V209, 4-[6-Amino-2-(2-methoxyethoxy)-8-oxo-7H-purin-9(8H)-yl]methylbenzoic acid], the “Emax, IL-6, normalized to unconjugated 1V209 (=1X)” value on TLR7 [1] is given as 1 ×. Also, on TLR7 [1] (setting [3]), a half-maximal response (EC50) required 1080 ± 101 nM and the “Emax, IL-6” value is recorded as 9.9 ± 1.0 ng/mL. Also, the “Emax, IL-12, normalized to unconjugated 1V209 (=1X)” value on TLR7 [2] is 1 ×. Also, at TLR7 [2] (setting [3]), the midpoint of the response, the EC50, lay at 883 ± 193 nM and the “Emax, IL-12” value is 3.2 ± 2.3 ng/mL. Further, in the assay with NLRP3 inflammasome, the IL-1β level entry is recorded as “very low levels or zero”. Moreover, in the assay on CT26 tumors, the tumor remission result was “did not result in tumor remission”.
